# Reference: patent US6914045B2, “Glycopeptide antibiotics” (Wyeth Holdings Corporation, priority 2001, dated 2005)
# What was measured:
# [1] = clinical pathology (serum clinical chemistry) in mice; format: in vivo; conditions: CD-1 mice, 20 mg/kg intravenously daily for 9 days, sera day 10
# Method: 20-day-old CD-1 mice were divided into a vehicle control group (5 mice) and a treatment group (5 mice). Samples of glycopeptide antibiotics were administered at 20 mg/kg intravenously daily for 9 days.
# Escherichia coli = test: in vitro antibacterial evaluation, MIC by broth dilution; format: cell-based; conditions: 18 hours at 35° C.
# Method in brief: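 MIC is the lowest antibiotic concentration (tested 64-0.06 μg/mL) preventing growth of a 5×10^5 CFU/mL inoculum. Determined by broth dilution in Mueller-Hinton II medium following NCCLS standard M7-A2.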
# [2] = anatomic pathology (histopathology of heart and kidney) in mice; format: in vivo; conditions: CD-1 mice, 20 mg/kg intravenously daily for 9 days, necropsy day 10, microscopic histopathology
# Method: Samples of tissues from necropsied mice were formalin-fixed, paraffin-embedded, sectioned, stained with hematoxylin and eosin, and examined microscopically. Histopathologic findings were recorded. These findings were subjectively graded on a scale corresponding to slight, mild, moderate, marked and severe as compared to untreated controls.
# Staphylococcus sp. = test: in vitro antibacterial evaluation, MIC by broth dilution; format: cell-based; conditions: broth dilution, 18 hours at 35° C.
# Method in brief: (§1)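 MIC, the lowest antibiotic concentration preventing growth, was read across 64-0.06 μg/mL with 5×10^5 CFU/mL inoculum. Method followed NCCLS M7-A2 broth dilution using Mueller-Hinton II; Gram-positive strains covered recent methicillin-, penicillin- and/or vancomycin-resistant clinical isolates.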
# Streptococcus sp. = test: as above; format: cell-based; conditions: broth dilution, 18 hours at 35° C.
# Method in brief: as §1
# Enterococcus sp. = test: as above; format: cell-based; conditions: broth dilution, 18 hours at 35° C.
# Method in brief: as §1
smiles,measurement,setting,value
"CC(c1ccccc1)C1NC(=O)CNC(=O)C(CO)NC(=O)C(C(O)C2CN(CCCCCCCCCCC(=O)O)C(=N)N2C2OC(CO)C(O)C(O)C2O)NC(=O)C(C(O)C2CNC(=N)N2)NC(=O)C(Cc2ccc(OC3OC(CO)C(OC4OC(CO)C(O)C(O)C4O)C(O)C3O)cc2)NC1=O (stereo not drawn) [Example 72, Cyclo[glycyl-β-methylphenylalanyl-O-(4-O-hexopyranosylhexopyranosyl)tyrosyl-3-(2-iminoimidazolidin-4-yl)seryl-3-[1-(10-carboxydecyl)-3-hexopyranosyl-2-iminoimidazolidin-4-yl]serylseryl]]","Clinical Chemistry (Day 10) % of Control, BUN",[1],+122%
same,MIC Escherichia coli (ATCC 25922),Escherichia coli,>128 µg/mL
same,MIC Escherichia coli (GC 4559),Escherichia coli,>128 µg/mL
same,MIC Escherichia coli (GC 4560),Escherichia coli,32 µg/mL
same,"Anatomical Pathology (Day 10), Heart",[2],0
same,"Anatomical Pathology (Day 10), Kidney",[2],++
same,MIC Staphylococcus aureus (ATCC 29213),Staphylococcus sp.; strain ATCC 29213,>128 µg/mL
same,MIC Staphylococcus aureus (GC 1131),Staphylococcus sp.; strain GC 1131,>128 µg/mL
same,MIC Staphylococcus aureus (GC 3051),Staphylococcus sp.; strain GC 3051,>128 µg/mL
same,MIC Staphylococcus aureus (GC 3053),Staphylococcus sp.; strain GC 3053,>128 µg/mL
same,MIC Staphylococcus aureus (GC 4541),Staphylococcus sp.; strain GC 4541,>128 µg/mL
same,MIC Staphylococcus aureus (GC 4542),Staphylococcus sp.; strain GC 4542,>128 µg/mL
same,MIC Staphylococcus aureus-SMITH (GC 4543),Staphylococcus sp.; strain GC 4543,>128 µg/mL
same,MIC Staphylococcus aureus (GC 4544),Staphylococcus sp.; strain GC 4544,>128 µg/mL
same,MIC Staphylococcus aureus (GC 4545),Staphylococcus sp.; strain GC 4545,>128 µg/mL
same,MIC Staphylococcus haemolyticus (GC 4546),Staphylococcus sp.; strain GC 4546,>128 µg/mL
same,MIC Coagulase Negative Staphylococcus (GC 4547),Staphylococcus sp.; strain GC 4547,>128 µg/mL
same,MIC Coagulase Negative Staphylococcus (GC 4548),Staphylococcus sp.; strain GC 4548,>128 µg/mL
same,MIC Coagulase Negative Staphylococcus (GC 4549),Staphylococcus sp.; strain GC 4549,>128 µg/mL
same,MIC Coagulase Negative Staphylococcus (GC 4551),Staphylococcus sp.; strain GC 4551,>128 µg/mL
same,MIC Coagulase Negative Staphylococcus (GC 6257),Staphylococcus sp.; strain GC 6257,>128 µg/mL
same,MIC Streptococcus agalactiae (GC 4564),Streptococcus sp.,128 µg/mL
same,MIC Streptococcus pneumoniae (ATCC 6301),Streptococcus sp.,64 µg/mL
same,MIC Streptococcus pneumoniae (GC 1894),Streptococcus sp.,16 µg/mL
same,MIC Streptococcus pneumoniae (GC 4565),Streptococcus sp.,64 µg/mL
same,MIC Streptococcus pyogenes (GC 4563),Streptococcus sp.,64 µg/mL
same,MIC Streptococcus pneumoniae (ATCC 6301),Streptococcus sp.; strain ATCC 6301,64 µg/mL
same,MIC Streptococcus pneumoniae (GC 1894),Streptococcus sp.; strain GC 1894,16 µg/mL
same,MIC Streptococcus pyogenes (GC 4563),Streptococcus sp.; strain GC 4563,64 µg/mL
same,MIC Streptococcus agalactiae (GC 4564),Streptococcus sp.; strain GC 4564,128 µg/mL
same,MIC Streptococcus pneumoniae (GC 4565),Streptococcus sp.; strain GC 4565,64 µg/mL
same,MIC Enterococcus avium (GC 4558),Enterococcus sp.; Enterococcus avium (GC 4558),64 µg/mL
same,MIC Enterococcus faecalis (ATCC 29212),Enterococcus sp.; Enterococcus faecalis (ATCC 29212),>128 µg/mL
same,MIC Enterococcus faecalis (GC 4552),Enterococcus sp.; Enterococcus faecalis (GC 4552),>128 µg/mL
same,MIC Enterococcus faecalis (GC 4553),Enterococcus sp.; Enterococcus faecalis (GC 4553),64 µg/mL
same,MIC Enterococcus faecalis (GC 4554),Enterococcus sp.; Enterococcus faecalis (GC 4554),>128 µg/mL
same,MIC Enterococcus faecalis (GC 6189),Enterococcus sp.; Enterococcus faecalis (GC 6189),>128 µg/mL
same,MIC Enterococcus faecium (GC 2243),Enterococcus sp.; Enterococcus faecium (GC 2243),>128 µg/mL
same,MIC Enterococcus faecium (GC 4556),Enterococcus sp.; Enterococcus faecium (GC 4556),>128 µg/mL
same,MIC Enterococcus faecium (GC 4557),Enterococcus sp.; Enterococcus faecium (GC 4557),128 µg/mL
same,MIC Enterococcus avium (GC 4558),Enterococcus sp.,64 µg/mL
same,MIC Enterococcus faecalis (ATCC 29212),Enterococcus sp.,>128 µg/mL
same,MIC Enterococcus faecalis (GC 2242),Enterococcus sp.,>128 µg/mL
same,MIC Enterococcus faecalis (GC 2691),Enterococcus sp.,>128 µg/mL
same,MIC Enterococcus faecalis (GC 3059),Enterococcus sp.,>128 µg/mL
same,MIC Enterococcus faecalis (GC 4552),Enterococcus sp.,>128 µg/mL
same,MIC Enterococcus faecalis (GC 4553),Enterococcus sp.,64 µg/mL
same,MIC Enterococcus faecalis (GC 4554),Enterococcus sp.,>128 µg/mL
same,MIC Enterococcus faecalis (GC 6189),Enterococcus sp.,>128 µg/mL
same,MIC Enterococcus faecium (GC 2243),Enterococcus sp.,>128 µg/mL
same,MIC Enterococcus faecium (GC 4556),Enterococcus sp.,>128 µg/mL
same,MIC Enterococcus faecium (GC 4557),Enterococcus sp.,128 µg/mL
same,MIC Enterococcus faecalis (GC 2242),Enterococcus sp.; strain GC 2242,>128 µg/mL
same,MIC Enterococcus faecalis (GC 2691),Enterococcus sp.; strain GC 2691,>128 µg/mL
same,MIC Enterococcus faecalis (GC 3059),Enterococcus sp.; strain GC 3059,>128 µg/mL
